As usually defined, the Ki is a dissociation constant, usually derived from enzyme kinetics or from competition with a known ligand. What is called log P is a log measure of how a compound divides between an organic and an aqueous phase.

One data set deals with T1, sigma-1 receptor (Rattus norvegicus, UniProt Q9R0C9).
T1 construct: from tissue; host or cells: rat brain without cerebellum (male Sprague-Dawley rats)
Set-up: method as in PMID 15670917. As to conditions: cited from earlier work.

Another data set deals with sigma receptors. The data set can be described thus: Blocking studies with excess sigma ligand in DU-145 tumor-bearing mice. It counts as in vivo. As to conditions: 10 μmol/kg i.v. co-injection, 1-h post-injection. The protocol:
At 1-h post-injection, the mice were killed, and biodistribution experiments were conducted as described above.

On the set-up of data set [1]: method as in PMID 19659515. Conditions: cited from earlier work.
The subject of data set [2] is DU-145 prostate cancer cell lines. As to the kind of experiment: Cellular uptake and washout experiments in vitro. In kind it is cell-based. Conditions: DU-145 cells. The protocol:
Radiotracer uptake studies were performed in monolayer cultures of DU-145 prostate cancer cell lines, which were obtained from ATCC (Manassas, VA, USA). Cells were grown in cell culture dishes in RPMI 1640 medium with phenol red, 10% heat-inactivated fetal bovine serum (FBS), 100-μg/mL glutamine, 100-units/mL penicillin, and 100-μg/mL streptomycin at 37°C in a humidified atmosphere of 95% air and 5% carbon dioxide. Cells were plated on 6-well tissue culture plates (4 × 10^5 cells/well) for 24 h before the study and incubated at 37°C in the culture medium without FBS containing (+)-^125I]IV-OH or (+)-^125I]pIV (3.7 kBq/well), which was prepared by a method of a previous study for different time intervals (15, 30, 60, and 120 min). For the washout experiment, tumor cells exposed to a medium containing (+)-^125I]IV-OH or (+)-^125I]pIV for 60 min were washed with phosphate buffered saline (PBS) and incubated in fresh (nonradioactive) medium without FBS at 37°C for 15, 30, and 60 min. […] After incubation, cells were washed twice with ice-cold PBS and resolved by adding 0.5 mL of 1-M NaOH. The solutions were then collected and the radioactivity was determined with an auto well gamma counter (ARC-380; Aloka) and corrected for background radiation. The radioactivity of each sample was normalized for the protein level, which was determined using a Protein Assay Bicinchoninate Kit (Nacalai Tesque).

T1 sequence (Q9R0C9 whole entry): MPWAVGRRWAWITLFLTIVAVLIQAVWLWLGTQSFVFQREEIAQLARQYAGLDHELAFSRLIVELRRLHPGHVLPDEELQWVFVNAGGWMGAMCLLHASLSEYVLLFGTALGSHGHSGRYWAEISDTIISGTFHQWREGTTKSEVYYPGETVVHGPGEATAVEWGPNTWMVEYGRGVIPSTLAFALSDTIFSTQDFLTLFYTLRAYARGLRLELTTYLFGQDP

For the compound `O[C@@H]1CCCCC1N1CCC(c2ccc(I)cc2)CC1` (single isomer, unassigned; (+)) [(+)-pIV, (+)-2-[4-(4-iodophenyl)piperidino]cyclohexanol], the Ki at sigma-1 receptor is 1.3 nM. Further, in the data set with sigma receptors, the “effect of co-injected ligand on brain to blood uptake ratio of (+)-[^125I]IV-OH” value is “significant decrease”, the “effect of co-injected ligand on pancreas to blood uptake ratio of (+)-[^125I]IV-OH” value was “significant decrease” and the “effect of co-injected ligand on tumor to blood uptake ratio of (+)-[^125I]IV-OH” value is listed as “significant decrease”.

Take `O[C@H]1CCCC[C@@H]1N1CCC(c2ccc([125I])cc2)CC1` [(+)-[^125I]pIV, reference compound]: in data set [1], the “log P” value was 2.08. Also, the “time at which uptake was saturated” value in data set [2] turned out to be 30 min. Further, the “accumulation in the presence of haloperidol” value in data set [2] (haloperidol 10 μM in culture medium) was “remarkably lessened”. Also, the “intracellular radioactivity released into the supernatant” value in data set [2] (within 60 min after medium replacement, specific uptake) turned out to be 44%.

The record behind these values is publication PMC3524758, “Development and evaluation of a novel radioiodinated vesamicol analog as a sigma receptor imaging agent” (EJNMMI Research, 2012).
